Results from patent US10543208B2, “Treatment of gliomas using organonitro compound combination therapy” (priority 2015, dated 2020).

Test system: temozolomide-resistant EGFRvIII/Arfko GBM (NSCG) cells
Experiment: Survival of mice after intracranial injection of NSCG tumors
Format: in vivo, FVBN mice
Conditions: ABDNAZ 10 mg/kg intraperitoneal, temozolomide 40 mg/kg oral gavage
Method: Mice implanted with temozolomide-resistant EGFRvIII/Arfko GBM (NSCG) cells were treated with (i) ABDNAZ (RRx-001, 10 mg/kg, intraperitoneal injection), (ii) temozolomide (TMZ)(40 mg/kg, oral gavage), or (iii) ABDNAZ (10 mg/kg, intraperitoneal injection) and temozolomide (40 mg/kg, oral gavage).
NSCG tumors were intracranially injected into FVBN mice. Mice to be treated were treated with one of the following (i) ABDNAZ (10 mg/kg, intraperitoneal injection), (ii) temozolomide (40 mg/kg, oral gavage), or (iii) ABDNAZ (10 mg/kg, intraperitoneal injection) and temozolomide (40 mg/kg, oral gavage). In a first experiment, treatment (i.e., administration of ABDNAZ (RRx-001), temozolomide (TMZ), or both ABDNAZ and temozolomide) was started five days after intracranial injection of NSCG cells. The control population of mice contained ten mice, the group receiving only ABDNAZ had twelve mice, the group receiving only temozolomide had twelve mice, and the group receiving both ABDNAZ and temozolomide had sixteen mice. Mouse survival was monitored over time.
In a second experiment, treatment (i.e., administration of ABDNAZ (RRx-001), temozolomide (TMZ), or both ABDNAZ and temozolomide) was started ten days after intracranial injection of NSCG cells. The control population of mice contained three mice, the group receiving only ABDNAZ had five mice, the group receiving only temozolomide had four mice, and the group receiving both ABDNAZ and temozolomide had six mice. Mouse survival was monitored over time.

[1] = treatment started five days after intracranial injection of NSCG cells, control 22.2
[2] = treatment started ten days after intracranial injection of NSCG cells, control 22.1

| SMILES | Median Survival Time [1] [days] | Median Survival Time [2] [days] |
| --- | --- | --- |
| O=C(CBr)N1CC([N+](=O)[O-])([N+](=O)[O-])C1 [ABDNAZ] | 25.3 | 22.5 |
| Cn1nnc2c(C(N)=O)ncn2c1=O [TMZ, 3,4-dihydro-3-methyl-4-oxoimidazo[5,1-d]-as-tetrazine-8-carboxamide] | 22.3 | 22.3 |
